{"source": "patent US6596754B1", "about": "“Preventives/remedies for multiple organ failure” (Daiichi Pharmaceuticals Co., Ltd., priority 1998, dated 2003)", "assay_type_in_all_cases": "in vivo, Rats (Slc: Wistar)", "key": {"IL-6": {"tested_on": "IL-6", "experiment": "Hypercytokinemia: plasma IL-6 by ELISA after LPS administration", "settings": "rats, LPS 20 mg/kg i.v.; 1 or 3 mg/kg s.c.; six hours after LPS; FIG. 1; #p <0.1", "experimental": "(§1) Rats (Slc: Wistar, male, 10 weeks old, n=7) were anesthetized by halothane. Subsequently, LPS (E. coli, 055: B5) (20 mg/2 ml/kg) was administered to each rat through the femoral vein. Immediately after administration, compound A was subcutaneously administered to each rats at a dose of 1 or 3 mg/kg. Six hours after administration of LPS, blood was collected from the abdominal aorta in the presence of citric acid, and plasma IL-6 was measured by ELISA."}, "[1]": {"tested_on": "liver function parameters (GOT, GPT, LDH, and T-BIL)", "experiment": "Liver disease: liver function parameters (GOT, GPT, LDH, T-BIL) after LPS administration", "settings": "six hours after LPS; for TBIL / GOT / GPT / LDH: rats, LPS 20 mg/kg i.v., Mean ± S.E. (n = 7); for TBIL: control 0.46 ± 0.15; for GOT: control 3404 ± 406; for GPT: control 3716 ± 496; for LDH: control 23847 ± 3225", "experimental": "as §1, with “each rat” for “each rats”, “of 0.3, 1,” for “of 1”, “after LPS administration,” for “after administration of LPS,”, “and the blood” for “and plasma IL-6”, “was collected to measurement of liver function parameters (GOT, GPT, LDH, and T-BIL).” for “was measured by ELISA.”"}, "[2]": {"tested_on": "LPS intravenous administration shock model", "experiment": "LPS intravenous administration shock model, mortality", "settings": "for Mortality in terms of percentage(%) / Mortality: rats, LPS 20 mg/kg i.v., 24 hours after LPS; for Mortality in terms of percentage(%): control 100%; for Mortality: dead/total", "experimental": "Rats (Slc: Wistar, male, 10 weeks old, n=15) were anesthetized by halothane. Subsequently, lipopolysaccharide (LPS) (E. coli, 055: B5) (20 mg/2 ml/kg) was administered to each rat through the femoral vein. Immediately after administration, (2S)-2-[4-([(3S)-1-acetimidoyl-3-pyrrolidinyl]oxy)phenyl]-3-(7-amidino-2-naphthyl)propionic acid hydrochloride pentahydrate (hereinafter referred to as “Compound A”) was subcutaneously administered to each rat at a dose of 0.3, 1, or 3 mg/kg. The mortality for the rats was observed 24 hours after the administration of LPS."}}}
{"smiles": "CC(=N)N1CC[C@H](Oc2ccc([C@H](Cc3ccc4ccc(C(=N)N)cc4c3)C(=O)O)cc2)C1.Cl.O.O.O.O.O", "note": "[Compound A, (2S)-2-[4-([(3S)-1-acetimidoyl-3-pyrrolidinyl]oxy)phenyl]-3-(7-amidino-2-naphthyl)propionic acid hydrochloride pentahydrate]", "values": [{"measurement": "Concentration of plasma IL-6 (in words)", "setting": "IL-6", "value": "dose-dependently suppressed the increase in concentration of IL-6"}, {"measurement": "Effect on liver function parameters (in words)", "setting": "[1]; 0.3, 1, 3 mg/kg s.c.", "value": "dose-dependently suppressed the increase in each liver function parameter"}, {"measurement": "TBIL", "setting": "[1]; 0.3 mg/kg s.c.", "value": "0.48 ± 0.22", "unit": "mg/dL"}, {"measurement": "GOT", "setting": "[1]; 0.3 mg/kg s.c.", "value": "1939 ± 442", "unit": "IU/L"}, {"measurement": "GPT", "setting": "[1]; 0.3 mg/kg s.c.", "value": "1986 ± 467", "unit": "IU/L"}, {"measurement": "LDH", "setting": "[1]; 0.3 mg/kg s.c.", "value": "11560 ± 2983", "unit": "IU/L"}, {"measurement": "TBIL", "setting": "[1]; 1 mg/kg s.c.", "value": "0.20 ± 0.10", "unit": "mg/dL"}, {"measurement": "GOT", "setting": "[1]; 1 mg/kg s.c.", "value": "1183 ± 281", "unit": "IU/L"}, {"measurement": "GPT", "setting": "[1]; 1 mg/kg s.c.", "value": "1216 ± 352", "unit": "IU/L"}, {"measurement": "LDH", "setting": "[1]; 1 mg/kg s.c.", "value": "6297 ± 2291", "unit": "IU/L"}, {"measurement": "TBIL", "setting": "[1]; 3 mg/kg s.c.", "value": "0.10 ± 0.01", "unit": "mg/dL"}, {"measurement": "GOT", "setting": "[1]; 3 mg/kg s.c.", "value": "364 ± 42", "unit": "IU/L"}, {"measurement": "GPT", "setting": "[1]; 3 mg/kg s.c.", "value": "189 ± 22", "unit": "IU/L"}, {"measurement": "LDH", "setting": "[1]; 3 mg/kg s.c.", "value": "972 ± 186", "unit": "IU/L"}, {"measurement": "Effect on mortality for rats (in words)", "setting": "[2]; 0.3, 1, 3 mg/kg s.c., χ2 test p<0.001", "value": "dose-dependently decreases the mortality for rats"}, {"measurement": "Mortality in terms of percentage(%)", "setting": "[2]; 0.3 mg/kg s.c.", "value": 80, "unit": "%"}, {"measurement": "Mortality", "setting": "[2]; 0.3 mg/kg s.c.", "value": "12/15"}, {"measurement": "Mortality in terms of percentage(%)", "setting": "[2]; 1 mg/kg s.c.", "value": 40, "unit": "%"}, {"measurement": "Mortality", "setting": "[2]; 1 mg/kg s.c.", "value": "6/15"}, {"measurement": "Mortality in terms of percentage(%)", "setting": "[2]; 3 mg/kg s.c.", "value": 7, "unit": "%"}, {"measurement": "Mortality", "setting": "[2]; 3 mg/kg s.c.", "value": "1/15"}]}
